Holding throughout (type): cell-based, human
Data set [1] deals with HBEC-65KT cells. The data set can be described thus: Comet assay of DNA damage in HBEC-65KT cells. The settings on record: HBEC-65KT (high-activity CYP1B1, low-activity COMT); short-term treatment; FIG. 4. As to the method: (§1) DNA was extracted from expanded clones for sequencing. The mutation status of 50 oncogenic driver genes was examined in transformed cells by next-gen sequencing using an AmpliSeq Illumina for Cancer Hotspot Panel v2. Data were analyzed using Illumina software. DNA damage induced by short-term treatment with estrogens was measured using the Comet assay (see, Mozaffarieh et al., Mol. Vis., 2008, 14, 1584-8). Other assays, however, may be used as desired.

For data set [2], the system named is HBEC-57KT cells. The data set can be described thus: Soft agar assay (anchorage independent growth, transformation) of HBEC-57KT cells. The settings on record: for transformation, ability to grow in soft agar: 2, 10, 50, or 100 nM for 27 weeks, FIG. 3; for colony formation / transformation in soft agar: 35 weeks of chronic treatment; for # Established: Experiment 2, picked clones established in culture. The source says: (§2) Three immortalized human bronchial epithelial cell lines (HBEC-57KT, -65KT, and -66KT) were used (see, Ramirez et al., Cancer Res., 2004, 64, 9027-34). […] Cells were immortalized by over-expressing Cdk4 and human telomerase reverse transcriptase (hTERT) to emulate two of the earliest events in lung cancer pathogenesis: abrogation of the p16/RB cell cycle checkpoint pathway and bypass of replicative senescence. HBEC-57KT, -65KT, and -66KT cells were maintained in keratinocyte serum-free (KSF) media containing 50 μg/ml bovine pituitary extract and 5 ng/ml epidermal growth factor. Initially, cells were chronically treated with 0.1% DMSO (vehicle) or 100 nM E2, 4-OHE1 or 4-OHE2. Subsequently, a broader dose range was tested, including 2, 10, 50, or 100 nM […]1, or 2-OHE2. Exposure times ranged from a minimum of 18 weeks and a maximum of 40 weeks. An aliquot from each cell line and treatment was banked in liquid nitrogen every 1-2 weeks. […] Natl. Acad. Sci. USA, 1978, 75, 4001-5). Briefly, each well of a 12-well plate was coated with 0.6% agarose/KSF media. Wells were overlaid with 0.3% agarose/KSF media containing 5000 HBEC-KT cells. RKO colon carcinoma cells were included as a positive control. Each assay was performed in triplicate. After 4-6 weeks, plates were either stained with crystal violet for counting or used to isolate viable clones. Transformed clones were picked using a p200 pipette tip, placed back in culture under pre-treatment conditions in KSF media, and expanded for future analyses.

Data set [3] relates to HBEC-65KT cells. The data set can be described thus: Soft agar assay (anchorage independent growth, transformation) of HBEC-65KT cells. Conditions: for # Established: Experiment 2, picked clones established in culture.
Source text: as §2

The subject of data set [4] is HBEC-57KT cells. The data set can be described thus: Comet assay of DNA damage in HBEC-57KT cells. The settings on record: HBEC-57KT (high-activity CYP1B1, low-activity COMT); short-term treatment; FIG. 4. As to the method: as §1
The next data set relates to HBEC-66KT cells. The data set can be described thus: Soft agar assay (anchorage independent growth, transformation) of HBEC-66KT cells. The settings on record: chronic treatment, data not shown. An excerpt:
Three immortalized human bronchial epithelial cell lines (HBEC-57KT, -65KT, and -66KT) were used (see, Ramirez et al., Cancer Res., 2004, 64, 9027-34). […] Cells were immortalized by over-expressing Cdk4 and human telomerase reverse transcriptase (hTERT) to emulate two of the earliest events in lung cancer pathogenesis: abrogation of the p16/RB cell cycle checkpoint pathway and bypass of replicative senescence. HBEC-57KT, -65KT, and -66KT cells were maintained in keratinocyte serum-free (KSF) media containing 50 μg/ml bovine pituitary extract and 5 ng/ml epidermal growth factor. Initially, cells were chronically treated with 0.1% DMSO (vehicle) or 100 nM E2, 4-OHE1 or 4-OHE2. Subsequently, a broader dose range was tested, including 2, 10, 50, or 100 nM […]1, or 2-OHE2. Exposure times ranged from a minimum of 18 weeks and a maximum of 40 weeks. An aliquot from each cell line and treatment was banked in liquid nitrogen every 1-2 weeks. At specific timepoints (18, 24 and 34 weeks post-treatment), each treated cell line was assayed for transformation by assessing anchorage independent growth in soft agar according to the method of de Larco and Todaro (see, de Larco et al., Proc. Natl. Acad. Sci. USA, 1978, 75, 4001-5). Briefly, each well of a 12-well plate was coated with 0.6% agarose/KSF media. Wells were overlaid with 0.3% agarose/KSF media containing 5000 HBEC-KT cells. RKO colon carcinoma cells were included as a positive control. Each assay was performed in triplicate. After 4-6 weeks, plates were either stained with crystal violet for counting or used to isolate viable clones. Transformed clones were picked using a p200 pipette tip, placed back in culture under pre-treatment conditions in KSF media, and expanded for future analyses.

Setting [5] is: Experiment 2, chronic treatment, 100 nM, soft agar.
Setting [6] is: Experiment 3, 18 weeks treated, colonies diffuse, did not grow once picked (not fully transformed).

Entries after “also recorded” stand apart in the source; their conditions may differ. Marks after values point to notes of the source that are not given here.

In the case of `C[C@]12CC[C@@H]3c4ccc(O)cc4CC[C@H]3[C@@H]1CC[C@@H]2O` [E2, 17β estradiol], the “DNA damage, comet tail moment vs. DMSO” value with HBEC-65KT cells [1] and in the data set with HBEC-57KT cells [4] was “induce DNA damage” throughout. Further, in the data set on HBEC-57KT cells [2], the “transformation, ability to grow in soft agar” value (“transformation, ability” for short) was “can transform HBEC-57KT cells”. Besides, in the data set with HBEC-57KT cells [2], the “colony formation / transformation in soft agar” value is listed as “low level colony formation”. Moreover, the “# Colonies” value was found to be 13 in the data set with HBEC-57KT cells [2] (setting [5]); 0 in the data set with HBEC-57KT cells [2] (setting [6]); 30 in the data set on HBEC-57KT cells [2] (Experiment 3, 35 weeks treated); 11 in the data set on HBEC-65KT cells [3] (setting [5]); 0 in the data set with HBEC-65KT cells [3] (Experiment 3, 18 weeks treated); 34 in the data set with HBEC-65KT cells [3] (Experiment 3, 35 weeks treated). Besides, the entries for the “# Established” value in the data set on HBEC-57KT cells [2] and in the data set with HBEC-65KT cells [3] were 6 and 4, respectively. The “colony formation in soft agar” value in the data set with HBEC-65KT cells [3] (35 weeks of chronic treatment) is reported as “low level colony formation”. In the data set with HBEC-66KT cells, the “transformation” value is “None of the tested treatments; also recorded: negative for transformation”.
Turning to `C[C@]12CC[C@@H]3c4cc(O)c(O)cc4CC[C@H]3[C@@H]1CCC2=O` [2-OHE1], in the data set with HBEC-57KT cells [2], the “transformation, ability” value was “can transform HBEC-57KT cells”.
As for `C[C@]12CC[C@@H]3c4ccc(O)c(O)c4CC[C@H]3[C@@H]1CC[C@@H]2O` [4-OHE2], the “DNA damage, comet tail moment vs. DMSO” value in the data set with HBEC-65KT cells [1] and in the data set on HBEC-57KT cells [4] was “induce DNA damage” in each case. In addition, the “transformation, ability” value in the data set with HBEC-57KT cells [2] is “can transform HBEC-57KT cells”. Also, the “colony formation / transformation in soft agar” value in the data set on HBEC-57KT cells [2] was “efficient colony formation”. The “# Colonies” value in the data set on HBEC-57KT cells [2] (setting [5]) is reported as 40; in the data set on HBEC-57KT cells [2] (setting [6]), 4*; in the data set on HBEC-57KT cells [2] (Experiment 3, 35 weeks treated), 54; in the data set on HBEC-65KT cells [3] (setting [5]) it was 0; with HBEC-65KT cells [3] (Experiment 3, 35 weeks treated), 0. For the same molecule, the “# Established” value worked out at 11 in the data set on HBEC-57KT cells [2] and 0 in the data set with HBEC-65KT cells [3]. The “transformation” value in the data set with HBEC-66KT cells is “None of the tested treatments; also recorded: negative for transformation”.
As for `C[C@]12CC[C@@H]3c4ccc(O)c(O)c4CC[C@H]3[C@@H]1CCC2=O` [4-OHE1], in the data set on HBEC-57KT cells [2], the “transformation, ability” value is reported as “can transform HBEC-57KT cells”. The “colony formation / transformation in soft agar” value in the data set with HBEC-57KT cells [2] was “also transformed HBEC-57KT cells”. Further, the “# Colonies” value in the data set on HBEC-57KT cells [2] (setting [5]) is recorded as 0; in the data set with HBEC-57KT cells [2] (Experiment 3, 35 weeks treated), 5 (small); in the data set on HBEC-65KT cells [3] (setting [5]), 0; in the data set with HBEC-65KT cells [3] (Experiment 3, 35 weeks treated), 0. In addition, the “# Established” value with HBEC-57KT cells [2] and in the data set on HBEC-65KT cells [3] was 0 each time. In addition, the “transformation” value with HBEC-66KT cells was “None of the tested treatments; also recorded: negative for transformation”.
Take `C[C@]12CC[C@@H]3c4cc(O)c(O)cc4CC[C@H]3[C@@H]1CC[C@@H]2O` [2-OHE2]: in the data set on HBEC-57KT cells [2], the “transformation, ability” value is “can transform HBEC-57KT cells”.
